In US20230017712A1, “SUSTAINED RELEASE DRUG DELIVERY DEVICE” (OAK CREST INSTITUTE OF SCIENCE, priority 2019, published 2023):
Read-outs that look alike come from different tables or passages of the source.

How the values were obtained:
[1] = system: HIV; settings: from non-human primate efficacy studies; cited from earlier work
[2] = 600 mg every 8 weeks, intramuscular; cited from earlier work
[3] = TAF powder, no excipients, PBS, 37° C.
Protocol: Segments (25 mm long) of the ePTFE tubes listed in TABLE 1 were cut, and approximately 3 mm of each end of the tube were prepared for sealing using FluoroEtch primer (Action Technologies, Pittston, Pa.) according to manufactures instructions. The tubes were then filled with tenofovir alafenamide (TAF) powder. No other excipients were used. The mass of TAF per implant varied between 20 and 70 mg depending on the experiment. The filled implants were sealed at both ends by placing a drop of Permabond 105 cyanoacrylate adhesive (Permabond Engineering Adhesives, Pottstown, Pa., USA) inside each end of the tube and crimping the end closed for 30 sec to allow the adhesive to cure and form a tight seal. Implants were kept at room temperature (ca. 23° C.) for 24 hours to allow the adhesive bond to reach full strength. The TAF in vitro release kinetics from the loaded implants was investigated by immersing the device in a solution consisting of phosphate buffered saline (PBS, 1×, 100 mL) containing sodium azide (0.01% w/v) at 37° C. with orbital shaking at 125 RPM for 30 days. The concentration of TAF in the release media was measured by UV-vis absorption spectroscopy (λmax 262 nm).

[4] = monoolein (MYVEROL 18-92K) paste, FIG. 30B
Protocol: (§1) In vitro release studies were carried out in 100 mL of release media (0.1% solutol HS 15 in 1×PBS) at 37° C. in an orbital shaking incubator at 125 RPM. Media was changed as required to keep TAF concentration at least 50-fold below saturation to maintain sink conditions.

[5] = paste 50% TAF / 50% PEG 400
Protocol: as §1, with “Implants were fabricated using an ePTFE tubing skin (40 mm length, 2.0 mm I.D., 0.18 mm wall thickness) and a paste kernel composed of 50% TAF and 50% PEG 400 (w/w); the tube ends were sealed. In” for “In”

[6] = kernel 70% TAF / 30% triethyl citrate
Protocol: For both implant types, kernels consisted of 70% TAF and 30% triethyl citrate (w/w). Skins used custom tube extrusions of polyurethane [Pellethane® 2363-55DE (Lubrizol, Inc.); 25 mm length, 2.2 mm I.D., 0.13 mm wall thickness] and silicone [MED-4765 (Nusil, Inc.); 25 mm length, 2.1 mm I.D., 0.13 mm wall thickness]. The implant ends were sealed with MEDS-4213 (Nusil, Inc.) silicone adhesive. In vitro release studies were carried out in 100 mL of release media (0.5% solutol HS 15 in 1×PBS) at 37° C. in an orbital shaking incubator at 125 RPM. Media was changed as required to keep TAF concentration at least 50-fold below saturation to maintain sink conditions.

[7] = Protocol: The concentration of TAF in the release media was measured by UV-vis absorption spectroscopy (λmax 262 nm).
Remark: listed apart in the source
[8] = system: HIV; settings: target 50 fmol TFV-DP per million PBMCs; cited from earlier work
[9] = system: HIV; settings: cited from earlier work

Q: With `C[C@H]1CO[C@@H]2Cn3cc(C(=O)NCc4ccc(F)cc4F)c(=O)c(O)c3C(=O)N12` [CAB, Cabotegravir] as the molecule, how does the “steady state plasma concentration target, four times the protein adjusted IC90 (PA-IC90)” value [1] read?
A: 0.66 µg/mL

Q: And the “participants with trough concentrations above 1× PA-IC90” value [2]?
A: ≥ 95%

Q: And the “participants with trough concentrations above 4× PA-IC90” value [2]?
A: ≥ 80%

Q: With `CC(C)OC(=O)[C@H](C)N[P@](=O)(CO[C@H](C)Cn1cnc2c(N)ncnc21)Oc1ccccc1` [TAF, Tenofovir alafenamide] as the molecule, how does the “daily release rate (slope of linear regression, best fit value±SE)” value ([3]; ePTFE tube density 0.34 g cm^−3) read?
A: 1.22 ± 0.023 mg/day

Q: What about the “daily release rate (slope of linear regression, best fit value±SE)” value ([3]; ePTFE tube density 0.47 g cm^−3) of the same molecule?
A: 0.40 ± 0.0087 mg/day

Q: And the “daily release rate (slope of linear regression, best fit value±SE)” value ([3]; ePTFE tube density 0.84 g cm^−3)?
A: 0.58 ± 0.0089 mg/day

Q: And the “daily release rate (slope of linear regression, best fit value±SE)” value ([3]; ePTFE tube density 1.13 g cm^−3)?
A: 0.12 ± 0.0037 mg/day

Q: What about the “effect of monoolein paste on release kinetics through ePTFE tubes relative to other hydrophobic oils” value [4] of the same molecule?
A: increasing the rate of drug release

Q: What about the TAF release rate ([5]; ePTFE density 0.47 g cm^−3) of the same molecule?
A: 0.51 mg/day

Q: What about the TAF release rate ([5]; ePTFE density 0.84 g cm^−3) of the same molecule?
A: 0.065 mg/day

Q: What about the “release rate, linear fit days 20-160” value ([6]; polyurethane skin (Pellethane 2363-55DE)) of the same molecule?
A: 0.079 mg/day

Q: What about the “release rate, linear fit days 20-160” value ([6]; silicone skin (MED-4765)) of the same molecule?
A: 0.035 mg/day

Q: And the “release behaviour of coated sponges” value ([7]; PDMS sponges coated with DL-PLA, L-PLA or PCL)?
A: controlled and tuned over 15 d

Q: And the “time for drug release from TAF-impregnated sponges” value ([7]; no polymer coating applied)?
A: under 1 d

Q: And the “TAF delivered linearly over 80 days” value (blended with PEG 400)?
A: ca. 5 mg

Q: And the “TAF delivered from the implants over the first month” value (blended with TEC)?
A: 60 mg

Q: And the “TAF delivered in less than the first day” value (blended with TEC)?
A: 5 mg

Q: And the “slope (release rate), simple linear regression” value (paste TAF 77% w/w with PEG 400 23% w/w, ePTFE 0.84 g cm^−3, 40 mm implant)?
A: 54.4 µg/day

Q: What about the “linear subcutaneous release rate leading to protective TFV-DP PBMC concentrations” value [8] of the same molecule?
A: 0.5 mg/day

Q: What about the “release rate that could be protective” value [9] of the same molecule?
A: ca. 0.3 mg d^−1
